Measurements as given in patent US20060105458A1, “Caged tetracycline (derivatives), their generation, and their use for photoactivated gene expression” (priority 2002, published 2006).

How the values were obtained:
[1] = system: tet-dependent chloramphenicol transferase (CAT) construct in organotypic hippocampal Müller cultures; test: Photoactivation of organotypic hippocampal Müller cultures (tet-dependent CAT transgene, immunohistochemistry); assay type: cell-based, rat or mouse
Protocol: FIG. 3 depicts a second assay to test photoactivation in tissues, exemplified by the use of organotypic hippocampal Müller cultures. […] After administration of caged doxycycline to the cells by adding it to the medium and subsequent photoactivation, CAT expression was assessed immuno-histochemically. […] CAT expression in the irradiated slice is mainly seen in cells at the border of the slice where cells become infected with viruses much more rapidly than in the center.
FIG. 4 illustrates the result of a further experiment performed by the present inventors. That is, in order to test if photoactivated gene expression can be used to induce gene expression in a locally restricted manner, adenovirus-infected Müller cultures were irradiated only in one half of the slice. […] Again, fluorescence is mostly seen at the slice boundary where the virus most readily infects cells of the culture. Thus, photoactivated gene expression provides the researcher with excellent spatial control over gene expression.
Mouse or rat hippocampal Müller cultures were prepared according to standard procedures from P5-7 animals. […] Following overnight incubation, 0.15 μM caged doxycycline was added to the medium, incubated for 1 h, and slices or selected regions of slices were irradiated for 10 sec with an upright fluorescence microscope using an appropriate filter (XF3000, OMEGA OPTICAL). Following overnight incubation, CAT fluorescence was detected immunohistochemically with a polyclonal anti-CAT antibody (Sigma).

[2] = final concentration 0.1 to 1 μM, within 24 h at 37° C.
[3] = system: tet-dependent GFP construct in organotypic hippocampal Müller cultures; test: Photoactivation of organotypic hippocampal Müller cultures (tet-dependent GFP transgene); assay type: cell-based, rat or mouse; conditions: 1.5 μM, optical fiber 200 μm, irradiated three times for 2 min with an interval of 1 hour
Protocol: FIG. 5 depicts a modified assay to test photoactivation in tissues, exemplified again by the use of organotypic hippocampal Müller cultures. […] To determine the maximal level of GFP expression that is possible with this approach, unmodified doxycycline was added in saturating concentrations (2 μM). […] The bright-field image on the right allows normal visualization of the culture (FIG. 5b).
FIG. 6: In a new set of experiments, photoactivation was done by using thin optical fibers (200 μm) for irradiation with the UV light coming from a Xenon arc lamp. The UV beam could be positioned with the help of a recording electrode that was aligned to be in the center of the circular irradiation area. About half of the culture was irradiated with this arrangement. The position of the electrode is indicated by the red dot. The culture was incubated with 1.5 μM caged doxycycline one hour prior to irradiation. Cultures were irradiated three times for 2 min with an interval of 1 hour. […] FIG. 6b indicates the electrode position relative to the whole culture.

[4] = system: CHO cells expressing the fusion protein and containing a tetracycline-dependent EGFP construct; test: Photoactivation of CHO cells (EGFP reporter); assay type: cell-based
Protocol: CHO cells mentioned above (that is, cells expressing the fusion protein^3 and containing a tetracycline-dependent EGFP) were used as a simple cell culture assay were propagated and plated according to standard cell culture procedures in Ham's F-12 medium. Cells were plated in 35 mm dishes with a glass bottom from Mattek. Two days after plating, cells were overlaid with 1% low-gelling agarose in Ham's F-12 containing 1 mM Na-butyrate and 0.3 μM caged doxycycline. Subsequently, a subset of cells was locally irradiated with a hand-held 6W UV lamp (365 nm) for 30 sec. Following overnight incubation, EGFP expression was assessed with a fluorescence microscope.

Row | CAT expression, unirradiated control slice ([1]; no irradiation) | CAT expression, irradiated slice ([1]; single pulse of UV irradiation, 0.15 μM caged doxycycline) | Spontaneous decomposition under incubation conditions [2] | Molecule | GFP expression after local UV irradiation [3] | Local expression of genes/transgenes on irradiation ([1]; irradiated CHO cells or organotypic hippocampal Müller cultures) | EGFP fluorescence, irradiated cells ([4]; CHO cells incubated with caged compound (0.3 μM), UV 365 nm 30 sec, overnight incubation) | EGFP fluorescence, cells not irradiated ([4]; cells in the same dish that were not irradiated)
1 | did not display any CAT expression | CAT expression in a few cells | about 10% | 1-(4,5-dimethoxy-2-nitrophenyl)-ethyl-caged doxycycline [DMNPE-caged doxycycline] | GFP positive cells that are within the circular irradiation area | – | – | –
2 | – | – | – | COc1cc(C(C)O[C@]23C(=O)C(C(N)=O)=C(O)[C@H](N(C)C)[C@H]2[C@H](O)[C@@H]2C(=C3O)C(=O)c3c(O)cccc3[C@H]2C)c([N+](=O)[O-])cc1OC (stereo partly shown) [DMNPE-caged doxycycline, 1-(4,5-dimethoxy-2-nitrophenyl)-ethyl-caged doxycycline] | – | specific, time-dependent, and local expression of genes/transgenes | widespread EGFP fluorescence | did not fluoresce
